Data from article PMC9253031, “Redox-sensitive doxorubicin liposome: a formulation approach for targeted tumor therapy” (Scientific Reports, 2022).

Assays:
[1] = tested on: C26 cell line (murine colon carcinoma cells); assay: MTT cytotoxicity, C26 cells; type: cell-based, mouse; conditions: 48 h treatment
Experimental: (§1) C26 and NIH-3T3 cell lines were cultured at 37 °C in a 5% CO2/95% air humidified atmosphere in RPMI 1640 and DEMEM media, respectively; the media were supplemented with 10% FCS and 100 U/mL penicillin, and 100 μg/mL streptomycin.
(§2) C26 and NIH-3T3 cells were seeded at 5000 cells/well into 96-well plates. […] After 48 h incubation at 37 °C, the cells were washed with PBS and MTT (10 μL/well MTT and 100 μL/well cell media) was added. After an additional incubation for 4 h at 37 °C, the absorbance of MTT was measured using a microplate reader (Awareness Technology Inc., USA) at 570 nm. Relative cell death (R) was calculated as follows:
(§3) R = 1 − [(A sample − A blank)/(A control − A blank)], where A sample and A control are the absorbances of the cells incubated with the sample solutions and the culture medium as the control group, respectively. A blank is the absorbance of MTT solution in a well without cells. The IC50 values were calculated using CalcuSyn Version 2.0 software (BIOSOFT, UK)[52].

[2] = tested on: NIH-3T3 cell line (mouse embryonic fibroblast cells); assay: MTT cytotoxicity, NIH-3T3 cells; type: cell-based; conditions: 48 h treatment
Experimental: as §1, §2, §3

C26 cells = assay: Dox cellular uptake by spectrofluorometry; type: cell-based, mouse; conditions: 1 and 3 h incubation, compared to Caelyx
Experimental: C26 cells were seeded at 1 × 10^6 cells/well in 6-well plates and incubated overnight. […] After 1 and 3 h of incubation at 37 °C, cells were washed with cold PBS. Then, acidified isopropyl alcohol (0.9 mL) was added to each well and transferred to a 2 mL vial and stored at 4 °C for 24 h. Samples were centrifuged for 10 min at 14,000 rpm.

[3] = Plasma Dox concentration and pharmacokinetics after i.v. administration; type: in vivo, BALB/c mice; conditions: Dox 10 mg/kg, mice
C26 tumor = assay: Anti-tumor efficacy and survival in mice bearing C26 colon cancer; conditions: single i.v. dose 10 mg/kg Dox

SMILES: O=C(O)CCCCCCCCC[Se][Se]CCCCCCCCCC(=O)O
- melting point: 82 °C

SMILES: COc1cccc2c1C(=O)c1c(O)c3c(c(O)c1C2=O)C[C@@](O)(C(=O)CO)C[C@@H]3O[C@H]1C[C@H](N)[C@H](O)[C@H](C)O1.Cl [Dox, Doxorubicin hydrochloride]
- IC50 (C26) 48 h [1]: 0.01 ± 0.010 µg/mL
- IC50 (NIH) 48 h [2]: 0.042 ± 0.013 µg/mL
- Cellular uptake of Dox (spectrofluorometry) (C26 cells): highest cellular uptake
- AUC (total area under the plasma concentration-time curve) [3]: 7200 ng·h/mL
- Cl (clearance) [3]: 1.38 (mg)/(μg/mL)/h
- MST (median survival time) (C26 tumor): 33.10 days
- TGD (tumor growth delay) (C26 tumor): 10.12%
- TTE (time to reach end point) ± SD (C26 tumor; C26 tumor, BALB/c mice, listed as Dox.HCl, 10 mg/kg): 32.40 ± 5.94 days
